Tests used:
[1] = Selectivity index, ratio of IC50 for human MRC5 cells to IC50 for chloroquine-resistant Plasmodium falciparum FCR-3; format: toxicity, cell-based; conditions: read-out: Ratio IC50
MRC5 = experiment: Cytotoxicity against human MRC5 cells; format: cell-based
Plasmodium falciparum = experiment: Antiplasmodial activity against chloroquine-resistant Plasmodium falciparum FCR-3 infected in human A positive erythrocytes by [3H]-hypoxanthine incorporation assay; format: functional, organism-based; conditions: FCR-3/Gambia

Compound	selectivity ratio [1]	IC50 (MRC5)	IC50 (Plasmodium falciparum)
O=C1c2ccccc2-c2ncc(Br)c3cccc1c23	> 0.38	> 100 µM	260 µM
O=C1c2ccccc2-c2nccc3cccc1c23	0.18	41.6 µM	230 µM
COc1cc2ccnc3c2c(c1[N+](=O)[O-])C(=O)c1ccccc1-3	1.42	80 µM	56 µM
COc1cc2ccnc3c2c(c1N)C(=O)c1ccccc1-3 [LAKSHMININE]	0.18	17.9 µM	100 µM
COc1cc2ccnc3c2c(c1O)C(=O)c1ccccc1-3	1.27	65.1 µM	51 µM
COc1cc2c3c(c1)C(=O)c1ccccc1C3=NCC2	32.4	81.3 µM	2.5 µM
COc1cc2c3c(nccc3c1N)-c1ccccc1C2=O	0.37	37 µM	100 µM
COc1cc2ccnc3c2c(c1OC)C(=O)c1ccccc1-3	0.68	50.5 µM	74 µM
COc1cc2c3c(nccc3c1[N+](=O)[O-])-c1ccccc1C2=O	0.49	10.2 µM	21 µM
COc1cc2c3c(ncc(Br)c3c1)-c1ccccc1C2=O	0.13	28.9 µM	220 µM
COc1cc2c3c(nccc3c1Br)-c1ccccc1C2=O	> 1.99	> 100 µM	52 µM
COc1cc2c3c(nccc3c1)-c1ccccc1C2=O	> 15.6	> 100 µM	6.4 µM
